This is an account of results in patent publication EP3119416B1, “THERAPEUTIC USE OF ADIPOKINETIC HORMONE/RED PIGMENT-CONCENTRATING HORMONE (AKH/RPCH) FAMILY OF PEPTIDES” (Mutlu, Oguz, priority 2015, dated 2017).

The test system of data set [1] is adult females of the firebug, Pyrrhocoris apterus (L.). The following applies: adult female firebugs, cited from earlier work; for walking activity: simultaneously with elevation of lipid level in the haemolymph.
For data set [2], the system named is Emperor dragonfly, Anax imperator. The following applies: low concentrations of the synthetic peptide injected into the Emperor dragonfly; cited from earlier work.
Data set [3] relates to BALB/c ByJ mice. Description: Locomotor activity test (open field). Format: in vivo. The following applies: for locomotion enhancing effects in the locomotor activity test: male balb-c mice. The procedure: (§1) Male, inbred BALB/c ByJ mice (Uludag University, Bursa, Turkey), 7-8 weeks old at their arrival to the laboratory, were used in this study. They were kept in the laboratory for two weeks before the onset of the experiments. Mice were maintained under standard laboratory conditions (12-h light: 12-h dark cycle, lights on 07:00 h, T=21±1°C). All animals received food and water ad libitum. All procedures described in this assay were conducted in accordance with the European Community Council's Directive for the ethical treatment of animals (86/609/EEC) and with the approval of the Kocaeli University Medical Faculty (7/3/2014).
(§2) In the FST, EPM, and locomotor activity tests, the animals were treated with Ani-AKH (1 and 2 mg/kg) (n=9-10), Lia-AKH (1 and 2 mg/kg) (n=10-12) and Pht-HrTH (1 and 2 mg/kg) (n=10-12) or vehicle (saline with 1% DMSO) (n= 10) for 14 days (chronically) and the drugs were administered intraperitoneally (i.p.) 60 min. before each test in a volume of 0.1 ml/10 g body weight. Separate group of animals used in each test.
Locomotor activity was measured using an open field test in a square arena (40 x 40 x 40 cm box). The animal was placed in the center of the apparatus and behaviours were recorded for a period of 5 min using the Etovision-XT video tracking system. The locomotor activity was evaluated by measuring the total distance travelled (cm) in the apparatus and the speed (cm/s) of the animals.
(§3) The results of the FST, EPM, locomotor activity tests were evaluated by one-way ANOVA followed by Tukey's post-hoc test when significant differences were detected. The data are expressed as the mean values ± SEM. The differences were considered to be statistically significant when p was less than 0.05.

Data set [4] deals with BALB/c ByJ mice. Nature of the data set: Elevated Plus-Maze Test (EPM). Format: in vivo. Here is the method: as §1, §2
In addition, in the EPM (acute) test, Ani- AKH (0.5 and 1 mg/kg) (n= 10 per group) was also administered, just for one time, before the test to investigate the acute effect of the hormone.
Anxiety related behaviour was measured by the elevated plus-maze test. Experiments were conducted in a dimly lit, semi-soundproof room, illuminated with table lamp (80 lux). Maze was made of wood and consisted of two open (29 cm long × 5 cm wide) and closed arms (29 cm × 5 cm with 15 cm high walls) forming a square cross with a 5 cm square center piece. In order to avoid falls the open arms was surrounded by a short (1 cm) Plexiglas edge. The maze was elevated 40 cm above the floor. Each mice was placed at the center of the maze, facing one of the open arms, and was allowed to explore the maze. The open-arm activity was evaluated as: 1) time spent in the open arms relative to the total time spent in the plus maze (300 s), expressed as a percentage 2) number of entries into the open arms relative to the total number of entries into both open and closed arms, expressed as a percentage. These values were accepted as indexes of anxiety in mice.
as §3

The test system of data set [5] is BALB/c ByJ mice. Description: Forced Swim Test (FST). The format is in vivo. The following applies: for immobility time: 60 min before test, compared to control group, Fig 1a/1b; for antidepressant effects in the forced swimming test: male balb-c mice. The procedure: as §1, §2
The FST employed was similar to a previously described method (Porsolt et al, 1977). Briefly, the mice were dropped individually into Plexiglas cylinders (height 25 cm, diameter 10 cm) containing 10 cm of water maintained at 23-25°C and left there for 6 min. Because this is a situation from which they cannot escape, the animals rapidly become immobile, that is, floating in an upright position and making only small movements to keep their heads above water. The duration of immobility was recorded during the last 4 min of the 6-min testing period.
as §3

Data set [6] has as its system Albino Swiss mice. The following applies: cited from earlier work.
Data set [7] relates to Albino Swiss mice. The following applies: injection to Albino Swiss mice (20-25 g); cited from earlier work.
Data set [8] relates to Albino Swiss mice. The following applies: administered intracerebroventricularly to mice; cited from earlier work.
Data set [9] has as its system Albino Swiss mice. The following applies: cited from earlier work. The source holds these as a separate data set.
[10] abbreviates: 2 mg/kg i.p. for 14 days, compared to control, Fig 3a/3c.
The mark [11] stands for this setting: 2 mg/kg i.p. for 14 days, compared to control, Fig 3b/3d.
[12] abbreviates: chronic, 1 mg/kg i.p. for 14 days, Fig 2c/2e.
The mark [13] stands for this setting: chronic, 1 mg/kg i.p. for 14 days, Fig 2d/2f.
Setting [14] is: chronic, 2 mg/kg i.p. for 14 days, Fig 2c/2e.
Setting [15] is: chronic, 2 mg/kg i.p. for 14 days, Fig 2d/2f.

Square brackets hold non-standard residues; d marks the D form. Peptide text beside a SMILES is read from it. pGlu = O=C1CC[C@@H](C(=O)O)N1

`NCCc1ccc(O)c(O)c1` [dopamine]: in data set [1], the “AKHs level in haemolymph” value is given as “decreased”, the “level of AKHs in CNS” value is listed as “no effect”, the “mobilization of the fat body lipids” value is listed as “mobilized” and the walking activity entry was “capable to enhance”.
Consider `NCCc1c[nH]c2ccc(O)cc12` [serotonin], for which the “mobilization of the fat body lipids” value in data set [1] is recorded as “mobilized”.
As to `CC(C)[C@H](NC(=O)[C@@H]1CCC(=O)N1)C(=O)N[C@@H](CC(N)=O)C(=O)N[C@@H](Cc1ccccc1)C(=O)N[C@@H](CO)C(=O)N1CCC[C@H]1C(=O)N[C@@H](CO)C(=O)N[C@@H](Cc1c[nH]c2ccccc12)C(N)=O` [Ani-AKH, 5-oxo-L-prolyl-L-valyl-L-asparaginyl-L-phenylalanyl-L-seryl-L-prolyl-L-seryl-L-Tryptophanamide] ([pGlu]VNFSPSW-NH2), in data set [2], the haemolymph lipid concentration result is on record as “increased”. Further, the total distance moved entry in data set [3] (setting [10]) is recorded as “increased”. In addition, in data set [3] (setting [11]), the “speed of the animals” value is “increased”. Moreover, in data set [3] (2 mg/kg i.p.), the “locomotion enhancing effects in the locomotor activity test” value (shortened to “locomotion enhancing effects”) is “had locomotion enhancing effects”. Besides, the “%time spent in the open arms” value in [4] (acute, 0.5 mg/kg i.p., one time before the test, Fig 2a) is recorded as “significantly increased”; in data set [4] (setting [12]), “didn't alter”; in data set [4] (setting [14]), “didn't alter”. Also, the “%open arm/total arm entries” value in data set [4] (acute, 1 mg/kg i.p., one time before the test, Fig 2b) is recorded as “significantly increased”; in data set [4] (setting [13]) it was “didn't alter”; in data set [4] (setting [15]), “didn't alter”. For the same molecule, the “anxiolytic effects in the elevated plus maze test” value (“anxiolytic effects” below) in data set [4] (administered acutely, 0.5 mg/kg) is recorded as “had anxiolytic effects”; in [4] (administered acutely, 1 mg/kg) it was “had anxiolytic effects”. Besides, the immobility time result in data set [5] (1 mg/kg i.p. for 14 days) and in data set [5] (2 mg/kg i.p. for 14 days) was “significantly diminished” in each case. The “antidepressant effects in the forced swimming test” value (“antidepressant effects” below) in [5] (1 mg/kg i.p.) and in data set [5] (2 mg/kg i.p.) was “had antidepressant effects” in each case.
`NCC(O)c1ccc(O)cc1` (stereo not shown) [octopamine]: in data set [1], the “mobilization of the fat body lipids” value is given as “mobilized”.
As for `NC[C@H](O)c1ccc(O)c(O)c1` [norepinephrine], in data set [1], the “AKHs level in haemolymph” value was “increased”, the “level of AKHs in CNS” value is recorded as “no effect”, the “mobilization of the fat body lipids” value is recorded as “mobilized” and the walking activity entry is “capable to enhance”.
In the case of [pGlu]VNFSPNW-NH2 [periplanetin CC-1], in [6], the “mortality in pentetrazole-induced seizures” value is given as “increased”. Moreover, the “threshold for tonic seizures” value in data set [6] (pentetrazole-induced seizures) was “decreased”. Further, the analgesic activity result in data set [7] is recorded as “strong analgesic activity”. Besides, the “peripheral blood glucose level” value in data set [8] is given as “did not increase”. Also, in [9], the “influence on the electric convulsions” value was “no influence”.
For the molecule `NCCc1c[nH]cn1` [histamine], the “mobilization of the fat body lipids” value in data set [1] is listed as “mobilized”.
As for `CC(C)[C@H](NC(=O)[C@@H]1CCC(=O)N1)C(=O)N[C@@H](CC(N)=O)C(=O)N[C@@H](Cc1ccccc1)C(=O)N[C@H](C(=O)N1CCC[C@H]1C(=O)N[C@@H](CO)C(=O)N[C@@H](Cc1c[nH]c2ccccc12)C(N)=O)[C@@H](C)O` [Lia-AKH, 5-oxo-L-prolyl-L-valyl-L-asparaginyl-L-phenylalanyl-L-threonyl-L-prolyl-L-seryl-L-Tryptophanamide] ([pGlu]VNFTPSW-NH2), the total distance moved entry in data set [3] (1 mg/kg i.p. for 14 days, compared to control, Fig 3c) is reported as “increased”; in data set [3] (setting [10]) it was “increased”. Further, the “speed of the animals” value is given as “increased” in [3] (1 mg/kg i.p. for 14 days, compared to control, Fig 3d) and “increased” in data set [3] (setting [11]). Besides, the “locomotion enhancing effects” value in [3] (1 mg/kg i.p.) and in data set [3] (2 mg/kg i.p.) was “had locomotion enhancing effects” in each case. The “%time spent in the open arms” value in [4] (setting [14]) was “significantly increased”. For the same molecule, in data set [4] (setting [15]), the “%open arm/total arm entries” value is “significantly increased”. For the same molecule, in [4] (given chronically, 2 mg/kg), the “anxiolytic effects” value is “had anxiolytic effects”. For the same molecule, the immobility time result in [5] (1 mg/kg i.p. for 14 days) and in data set [5] (2 mg/kg i.p. for 14 days) was “significantly diminished” throughout. Further, the “antidepressant effects” value in data set [5] (1 mg/kg i.p.) and in data set [5] (2 mg/kg i.p.) was “had antidepressant effects” each time.
In the case of `CC(C)C[C@H](NC(=O)[C@@H]1CCC(=O)N1)C(=O)N[C@H](C(=O)N[C@@H](Cc1ccccc1)C(=O)N[C@@H](CO)C(=O)N1CCC[C@H]1C(=O)N[C@@H](CC(=O)O)C(=O)N[C@@H](Cc1c[nH]c2ccccc12)C(N)=O)[C@@H](C)O` [Pht-HrTH, 5-oxo-L-prolyl-L-leucyl-L-threonyl-L-phenylalanyl-L-seryl-L-prolyl-L-alfa-aspartyl-L-Tryptophanamide] ([pGlu]LTFSPDW-NH2), the “locomotion enhancing effects” value in data set [3] (dose not given, i.p.) is reported as “had locomotion enhancing effects”. For the same molecule, in data set [3] (dose not printed in the sentence (groups 1 and 2 mg/kg i.p. for 14 days), Fig 3c), the total distance moved entry is recorded as “increased”. Further, the “speed of the animals” value in [3] (dose not printed in the sentence (groups 1 and 2 mg/kg i.p. for 14 days), Fig 3d) is reported as “increased”. Moreover, the “%time spent in the open arms” value in [4] (setting [12]) and in data set [4] (setting [14]) was “significantly increased” in each case. The “%open arm/total arm entries” value in [4] (setting [13]) and in [4] (setting [15]) was “significantly increased” each time. Also, the “anxiolytic effects” value in data set [4] (given chronically, 1 mg/kg) was “had anxiolytic effects”; in data set [4] (given chronically, 2 mg/kg) it was “had anxiolytic effects”. In addition, the immobility time result in [5] (1 mg/kg i.p. for 14 days) and in data set [5] (2 mg/kg i.p. for 14 days) was “significantly diminished” in each case. Further, the “antidepressant effects” value in data set [5] (1 mg/kg i.p.) and in data set [5] (2 mg/kg i.p.) was “had antidepressant effects” throughout.
